Structures can show the parent of a compound that is named as a salt. Where two headings read alike, the source gives them in different places.
Columns and labels:
[1] = target: T1, human histamine H3 receptor (Homo sapiens, UniProt Q9Y5N1); assay: functional [35S]GTPγS binding assay (antagonist potency, inhibition of RAMHA-stimulated binding); type: biochemical; conditions: for [35S]GTPγS binding Ki(nM): functional Ki from full dose-response IC50 by Cheng-Prusoff, 10 nM RAMHA, re-synthesized compounds
T1 construct: expressed in transfected cells
Method: CHO-cells, stably expressing the human histamine H3 receptor, were harvested and membranes were prepared by threefold homogenization in a HEPES buffer (20 mM HEPES, 0.1-10 mM EDTA; pH 7.4). […] The hits were subsequently tested in full dose-response curves for functional IC50 determinations. After 2 h incubation at RT with gentle shaking of the plate, the plate was centrifuged at 370 RCF for 10 min and subsequently the radioactivity was counted in a Packard TopCount-NXT.
The IC50 values were calculated by non-linear regression analysis using GraphPad Prism.

[2] = read-out: [35S]GTPγS binding Ki

T1 sequence (Q9Y5N1 whole entry): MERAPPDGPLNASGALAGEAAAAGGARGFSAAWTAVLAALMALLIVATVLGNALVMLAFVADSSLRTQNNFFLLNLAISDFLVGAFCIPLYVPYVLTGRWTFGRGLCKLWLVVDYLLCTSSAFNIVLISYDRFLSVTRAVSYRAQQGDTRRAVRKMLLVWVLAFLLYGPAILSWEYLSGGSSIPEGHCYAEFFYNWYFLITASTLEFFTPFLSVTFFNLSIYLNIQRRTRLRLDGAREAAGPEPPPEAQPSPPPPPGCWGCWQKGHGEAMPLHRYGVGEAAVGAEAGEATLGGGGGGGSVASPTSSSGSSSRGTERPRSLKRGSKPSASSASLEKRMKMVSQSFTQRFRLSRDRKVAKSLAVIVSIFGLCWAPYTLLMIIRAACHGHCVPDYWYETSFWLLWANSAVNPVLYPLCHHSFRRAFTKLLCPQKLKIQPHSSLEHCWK

| melting point [°C] | inhibition at 3.5 µM [1] [%] | Ki [1, 2] [nM] | Structure (SMILES) | also measured |
| --- | --- | --- | --- | --- |
| – | 70 | 19 | O=C(c1cc2ccccc2o1)N1CCN(CCCN2CCCCC2)CC1 [Compound A12B12, Benzofuran-2-yl-(4-(3-(piperidin-1-yl)propyl)piperazin-1-yl)methanone, dihydrochloride] | – |
| 274 to 276 | – | – | O=C(c1cccc(Oc2ccccc2)c1)N1CCN(CCCN2CCCCC2)CC1 (as salt: hydrochloride) [Compound A21B12] | – |
| – | 60 | 16 | COc1ccc2oc(C(=O)N3CCN(CCCN4CCCCC4)CC3)cc2c1 [Compound A13B12] | – |
| 255 to 257 | – | – | COc1ccc2oc(C(=O)N3CCN(CCCN4CCCCC4)CC3)cc2c1 (as salt: hydrochloride) (hydrate or solvate) [Compound A13B12] | – |
| 265 to 267 | – | – | O=C(c1cc2ccccc2s1)N1CCN(CCCN2CCCCC2)CC1 (as salt: hydrochloride) (hydrate or solvate) [Compound A11B12] | – |
| – | 62 | 23 | O=C(c1cccc(Oc2ccccc2)c1)N1CCN(CCCN2CCCCC2)CC1 [Compound A21B12] | – |
| – | 57 | 35 | O=C(c1cc2ccccc2s1)N1CCN(CCCN2CCCCC2)CC1 [Compound A11B12] | – |
| – | 74 | 7.4 | O=C(CC1c2ccccc2-c2ccccc21)N1CCN(CCCN2CCCCC2)CC1 [Compound A18B12, 2-(9H-Fluoren-9-yl)-1-(4-(3-(piperidin-1-yl)propyl)piperazin-1-yl)ethanone, dihydrochloride] | [35S]GTPγS binding Ki(nM) [1]: low nanomolar range |
| 263 to 265 | – | – | O=C(CC1c2ccccc2-c2ccccc21)N1CCN(CCCN2CCCCC2)CC1 (as salt: hydrochloride) (hydrate or solvate) [Compound A18B12, 2-(9H-Fluoren-9-yl)-1-(4-(3-(piperidin-1-yl)propyl)piperazin-1-yl)ethanone, dihydrochloride] | – |
| 253 to 255 | – | – | O=C(c1cc2ccccc2o1)N1CCN(CCCN2CCCCC2)CC1 (as salt: hydrochloride) (hydrate or solvate) [Compound A12B12, Benzofuran-2-yl-(4-(3-(piperidin-1-yl)propyl)piperazin-1-yl)methanone, dihydrochloride] | – |

| Structure (SMILES) | melting point [°C] | inhibition at 3.5 µM [1] [%] | Ki [1, 2] [nM] | also measured |
| --- | --- | --- | --- | --- |
| O=C(Cc1ccc(-c2ccccc2)cc1)N1CCN(CCCN2CCCCC2)CC1 (as salt: hydrochloride) (hydrate or solvate) [Compound A15B12] | 274 to 276 | – | – | – |
| O=C(Cc1ccc(-c2ccccc2)cc1)N1CCN(CCCN2CCCCC2)CC1 [Compound A15B12] | – | 56 | – | Ki [1]: 51 nM |
| O=C(Cc1c[nH]c2ccccc12)N1CCN(CCCN2CCCCC2)CC1 [Compound A14B12] | – | 73 | – | Ki [1]: 10 nM; [35S]GTPγS binding Ki(nM) [1]: low nanomolar range |
| O=C(Cc1c[nH]c2ccccc12)N1CCN(CCCN2CCCCC2)CC1 (as salt: hydrochloride) [Compound A14B12] | 256 to 258 | – | – | – |
